What was measured:
[1] = Maximum solubility of DHEA in lipophilic excipients (12 h stirring with excess active, filtration, HPLC); format: physicochemical; details: room temperature
Method: In Table 1 are various examples showing the low solubility of DHEA in a lipophilic phase:
These maximum solubilities of DHEA were measured after stirring for 12 h with a magnetic stirrer bar, at room temperature, with an excess of active ingredient in the excipient to be analyzed. The suspension is then filtered (1.2 μm) and then the filtrate is assayed by HPLC.
Above the concentration measured, there is recrystallization of the DHEA at room temperature.

[2] = cited from earlier work

## C[C@]12CC[C@H](O)CC1=CC[C@@H]1[C@@H]2CC[C@]2(C)C(=O)CC[C@@H]12 [DHEA, 3-beta-hydroxyandrosteron-5-en-17-one]
[1]; in Caprylic/capric triglycerides
  Solubility (% w/w): 1.77% w/w
[1]; in Cetearyl isononanoate
  Solubility (% w/w): 0.83% w/w
[1]; in Cyclomethicone
  Solubility (% w/w): 0.04% w/w
[1]; in Dimethicone
  Solubility (% w/w): 0.17% w/w
[1]; in Isopropyl palmitate
  Solubility (% w/w): 1.37% w/w
[1]; in Mineral oil
  Solubility (% w/w): 1.00% w/w
[1]; in Octyl palmitate
  Solubility (% w/w): 1.00% w/w
[1]; in Sesame oil
  Solubility (% w/w): 1.40% w/w
[1]; in Squalane
  Solubility (% w/w): 0.10% w/w
[2]
  maximum solubility in water: 0.02 mg/mL

Reference: patent US20040219123A1, “Invert emulsions comprising DHEA” (GALDERMA RESEARCH & DEVELOPMENT, S.N.C., priority 2001, published 2004)
